pIC50: −log10 of the molar value. Where two headings read alike, the source gives them in different places.
Columns and labels:
human FGFR1 = human FGFR1 (Homo sapiens, UniProt P11362); test: 33P isotope-labeled kinase activity test, wild-type FGFR1; conditions: 33P-ATP 5 μM, 120 minutes
Text: (§1) Assay 1: Evaluation of Wild-Type Kinase Inhibitory Activity In Vitro

human FGFR4 = human FGFR4 (Homo sapiens, UniProt P22455); test: 33P isotope-labeled kinase activity test, wild-type FGFR4; conditions: 33P-ATP 100 μM, 120 minutes
Text: as §1

[1] = Pharmacokinetics in mice in vivo; conditions: female, mouse, plasma, Balb/c mice; for AUC: read-out: Area under the curve, AUC; for clearance: read-out: Clearance rate; for half-life: read-out: Half-life T1/2 (converted); for bioavailability: read-out: Bioavailability F
Procedure: Assay 3: Evaluation of Compounds' Pharmacokinetics
Experiment purpose: To test the pharmacokinetics of the compound in mice in vivo.
The pharmacokinetics profile in rodents after the intravenous injection and the oral administration of the compound was tested using a standard protocol. In experiments, the candidate compound was prepared as a clear solution, which was administered to the mice as a single intravenous injection and as an oral administration. The medium for the intravenous injection was 10% DMSO/10% solutol/80% water, and the medium for the oral administration was 0.5% sodium carboxymethylcellulose+0.2% Tween. The whole blood samples within 24 hours were collected. All blood samples were added to the well-labeled plastic centrifuge tubes, to which 0.5M K2-EDTA anticoagulant was added in advance. After the collection of blood samples, the blood samples were centrifuged at 4° C. at 3000 g for 10 minutes. The supernatant plasma was collected, promptly placed in the dry ice, and kept at a temperature of −20° C. or lower. The LC-MS/MS analysis method was used to quantitatively analyze the blood concentration, and the pharmacokinetics parameters, such as peak concentration, peak time, clearance rate, half-life, area under the curve and bioavailability were calculated.

Sequence of human FGFR1 (P11362 22-822): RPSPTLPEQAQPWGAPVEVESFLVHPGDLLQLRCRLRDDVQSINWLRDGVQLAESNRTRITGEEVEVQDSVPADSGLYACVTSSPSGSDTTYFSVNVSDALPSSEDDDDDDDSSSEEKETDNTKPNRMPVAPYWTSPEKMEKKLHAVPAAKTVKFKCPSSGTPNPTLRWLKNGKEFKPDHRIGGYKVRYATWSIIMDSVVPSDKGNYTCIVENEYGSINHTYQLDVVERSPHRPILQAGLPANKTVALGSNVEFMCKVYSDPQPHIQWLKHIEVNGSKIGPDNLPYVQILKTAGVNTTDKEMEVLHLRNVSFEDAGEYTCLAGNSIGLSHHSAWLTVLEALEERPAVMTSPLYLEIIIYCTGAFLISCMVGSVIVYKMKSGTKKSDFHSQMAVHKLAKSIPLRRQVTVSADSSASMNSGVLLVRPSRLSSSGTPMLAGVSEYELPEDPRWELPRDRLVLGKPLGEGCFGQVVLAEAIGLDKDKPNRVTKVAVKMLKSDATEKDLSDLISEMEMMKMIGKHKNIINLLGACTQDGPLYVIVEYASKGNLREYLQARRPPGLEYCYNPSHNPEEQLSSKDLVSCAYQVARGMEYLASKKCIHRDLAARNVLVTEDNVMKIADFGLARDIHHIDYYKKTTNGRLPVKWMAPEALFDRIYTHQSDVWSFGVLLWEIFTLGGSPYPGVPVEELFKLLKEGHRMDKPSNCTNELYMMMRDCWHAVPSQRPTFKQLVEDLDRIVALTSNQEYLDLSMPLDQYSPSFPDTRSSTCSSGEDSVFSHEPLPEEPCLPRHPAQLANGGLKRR
Sequence of human FGFR4 (P22455 22-802): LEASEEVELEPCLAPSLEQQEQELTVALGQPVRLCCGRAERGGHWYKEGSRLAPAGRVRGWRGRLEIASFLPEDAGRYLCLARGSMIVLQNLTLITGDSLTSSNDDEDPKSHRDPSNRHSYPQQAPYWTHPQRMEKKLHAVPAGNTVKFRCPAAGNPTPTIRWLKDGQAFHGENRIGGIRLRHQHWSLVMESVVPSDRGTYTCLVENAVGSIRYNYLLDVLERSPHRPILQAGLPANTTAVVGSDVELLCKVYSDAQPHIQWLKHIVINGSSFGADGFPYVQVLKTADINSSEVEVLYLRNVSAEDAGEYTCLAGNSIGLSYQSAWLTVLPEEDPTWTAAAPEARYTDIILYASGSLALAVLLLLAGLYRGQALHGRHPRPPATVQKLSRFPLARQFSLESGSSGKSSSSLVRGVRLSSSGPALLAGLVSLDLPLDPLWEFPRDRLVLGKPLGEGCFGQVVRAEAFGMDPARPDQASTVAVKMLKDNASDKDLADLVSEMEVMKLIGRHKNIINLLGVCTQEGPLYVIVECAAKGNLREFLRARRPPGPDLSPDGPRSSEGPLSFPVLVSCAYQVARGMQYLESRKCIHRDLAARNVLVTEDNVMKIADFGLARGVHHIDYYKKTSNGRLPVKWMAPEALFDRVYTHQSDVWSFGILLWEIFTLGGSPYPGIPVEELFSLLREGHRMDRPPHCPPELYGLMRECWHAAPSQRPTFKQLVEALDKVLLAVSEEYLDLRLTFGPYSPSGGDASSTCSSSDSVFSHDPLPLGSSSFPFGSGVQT

Row | pIC50 (human FGFR1; IC50 FGFR1, wild-type kinase) | pIC50 (human FGFR4) | SMILES | further results
1 | 9.15 | 8.07 | C=CC(=O)N1CCC(c2cc(-c3sc4c(OC)cc(C)cc4c3C)c3c(N)ncnn23)C1 (single isomer, unassigned) [Example 7] | 
2 | 10.00 | 9.15 | C=CC(=O)N1CCC(c2cc(-c3sc4c(OC)cc(C)cc4c3C)c3c(N)ncnn23)C1 (single isomer, unassigned) [Example 8] | 
3 | 9.70 | 8.59 | COc1cc(C)cc2cc(-c3cc(C4CCN(C(=O)/C=C/CN(C)C)C4)n4ncnc(N)c34)sc12 (single isomer, unassigned) [Example 12] | 
4 | 9.22 | 8.06 | COc1cc(C)cc2cc(-c3cc(C4CCN(C(=O)/C=C/CN(C)C)C4)n4ncnc(N)c34)sc12 (single isomer, unassigned) [Example 13] | 
5 | 8.82 | 8.21 | COc1cc(C)cc2cc(-c3cc(C4CCN(C(=O)CC#N)C4)n4ncnc(N)c34)sc12 (single isomer, unassigned) [Example 15] | AUC ([1]; intravenous injection (3 npk)): 2.03 µM·h; clearance ([1]; intravenous injection (3 npk)): 52 mL/min/kg; half-life ([1]; intravenous injection (3 npk)): 48 min; AUC ([1]; oral administration (10 npk)): 4.8 µM·h; bioavailability ([1]; oral administration (10 npk)): 70%
6 | 9.10 | 8.28 | COc1cc(C)cc2cc(-c3cc(C4CCN(C(=O)CC#N)C4)n4ncnc(N)c34)sc12 (single isomer, unassigned) [Example 16] | 
7 | 10.00 | 9.70 | C=CC(=O)N1CCC(c2c(COC)c(-c3cc4cc(C)cc(OC)c4s3)c3c(N)ncnn23)C1 (single isomer, unassigned) [Example 18] | 
8 |  | 10.00 | C=CC(=O)N1CCC(c2c(COC)c(-c3cc4cc(C)cc(OC)c4s3)c3c(N)ncnn23)C1 (single isomer, unassigned) [Example 19] | pIC50 (human FGFR1; read-out: IC50 FGFR1, wild-type kinase): 10.00
9 | 9.40 | 9.05 | C=CC(=O)N1CCC(c2cc(-c3cc4cc(C)cc(OC)c4s3)c3c(N)ncnn23)C1 (centres unmarked) [Example 1] | 
10 | 9.22 | 8.39 | C=CC(=O)N1CC[C@@H](c2cc(-c3cc4cc(Cl)cc(OC)c4s3)c3c(N)ncnn23)C1 [Example 4] | 
11 | 9.52 | 9.15 | C=CC(=O)N1CC[C@H](c2cc(-c3cc4cc(Cl)cc(OC)c4s3)c3c(N)ncnn23)C1 [Example 5] | 
12 | 8.77 | 8.27 | C=CC(=O)N1CCCC(c2cc(-c3cc4cc(C)cc(OC)c4s3)c3c(N)ncnn23)C1 (centres unmarked) [Example 6] | 
13 | 9.15 | 8.48 | C=CC(=O)N1CC[C@H](c2cc(-c3sc4c(OC)cc(Cl)cc4c3C)c3c(N)ncnn23)C1 [Example 9] | 
14 | 9.70 | 8.82 | CC#CC(=O)N1CC[C@@H](c2cc(-c3cc4cc(C)cc(OC)c4s3)c3c(N)ncnn23)C1 [Example 10] | 
15 | 10.00 | 10.00 | CC#CC(=O)N1CC[C@H](c2cc(-c3cc4cc(C)cc(OC)c4s3)c3c(N)ncnn23)C1 [Example 11] | 
16 | 9.10 | 8.18 | C=CC(=O)N1CCC(O)(c2cc(-c3cc4cc(C)cc(OC)c4s3)c3c(N)ncnn23)C1 (centres unmarked) [Example 14] | 
17 | < 5.00 | < 5.00 | C=CC(=O)N1CC[C@H](c2cc(-c3nc4cc(OC)cc(OC)c4s3)c3c(N)ncnn23)C1 [Example 17] | 

Row | pIC50 (human FGFR1; IC50 FGFR1, wild-type kinase) | pIC50 (human FGFR4) | SMILES | further results
18 | 9.70 | 9.10 | CC#CC(=O)N1CCC(c2c(COC)c(-c3cc4cc(C)cc(OC)c4s3)c3c(N)ncnn23)C1 (centres unmarked) [Example 20] | 
19 | 8.18 | 6.86 | CCC(=O)N1CC[C@H](c2cc(-c3cc4c(F)c(OC)cc(OC)c4s3)c3c(N)ncnn23)C1 [Example 21] | 
20 | 8.82 | 8.00 | C=CC(=O)N1CC[C@@H](c2cc(-c3cc4c(F)c(OC)cc(OC)c4s3)c3c(N)ncnn23)C1 [Example 22] | 
21 | 9.70 | 9.70 | C=CC(=O)N1CC[C@H](c2cc(-c3cc4c(F)c(OC)cc(OC)c4s3)c3c(N)ncnn23)C1 [Example 23] | 
22 | 8.66 | 7.40 | CCC(=O)N1CC[C@@H](c2cc(-c3cc4c(F)c(OC)cc(OC)c4s3)c3c(N)ncnn23)C1 [Example 24] | 
23 | 6.60 | 6.32 | C=CC(=O)N1CC[C@H](c2cc(-c3cc4cccc(OC)c4o3)c3c(N)ncnn23)C1 [Example 25] | 
24 | 8.92 | 8.38 | CCC(=O)N1CC[C@@H](c2cc(-c3cc4cc(C)cc(OC)c4s3)c3c(N)ncnn23)C1 [Example 26] | 
25 | 8.33 | 7.17 | CCC(=O)N1CC[C@H](c2cc(-c3cc4cc(C)cc(OC)c4s3)c3c(N)ncnn23)C1 [Example 27] | 
26 | < 5.00 | < 5.00 | CCC(=O)N1CC[C@H](c2cc(-c3nc4cc(OC)cc(OC)c4s3)c3c(N)ncnn23)C1 [Example 28] | 
27 | 9.30 | 8.04 | COc1cc(OC)c2sc(-c3cc([C@@H]4CCN(C(=O)/C=C/CN(C)C)C4)n4ncnc(N)c34)cc2c1F [Example 29] | 
28 | 8.80 | 7.70 | COc1cc(OC)c2sc(-c3cc([C@H]4CCN(C(=O)/C=C/CN(C)C)C4)n4ncnc(N)c34)cc2c1F [Example 30] | 
29 | 8.96 | 8.02 | COc1cc(C)cc2cc(-c3cc([C@@H]4CCN(C(=O)/C=C/CN5CCOCC5)C4)n4ncnc(N)c34)sc12 [Example 31] | 
30 | 8.33 | 7.10 | COc1cc(C)cc2cc(-c3cc([C@H]4CCN(C(=O)/C=C/CN5CCOCC5)C4)n4ncnc(N)c34)sc12 [Example 32] | 
31 | 9.30 | 9.05 | C=CC(=O)N1CC[C@H](c2cc(-c3cc4cccc(OC)c4s3)c3c(N)ncnn23)C1 [Example 33] | 
32 | 6.90 | 6.34 | C=CC(=O)N1CC[C@@H](c2cc(-c3nc4cc(OC)cc(OC)c4s3)c3c(N)ncnn23)C1 [Example 34] | 
33 |  |  | C=CC(=O)N1CC[C@H](n2nc(C#Cc3cc(OC)cc(OC)c3)c3c(N)ncnc32)C1 [Reference Example 1, reference compound] | AUC ([1]; intravenous injection (3 npk)): 5.29 µM·h; clearance ([1]; intravenous injection (3 npk)): 22 mL/min/kg; half-life ([1]; intravenous injection (3 npk)): 42 min; AUC ([1]; oral administration (10 npk)): 11.9 µM·h; bioavailability ([1]; oral administration (10 npk)): 69%
